≈ marks a conversion by molar mass, not a printed value.
How the values were obtained:
[1] = test system: P388; test: Cytotoxicity against mouse P388 cells; type: functional; details: read-out: ED50 (the source's name)
[2] = test system: Bel-7402; test: Cytotoxicity against human Bel-7402 cells assessed as reduction in cell viability measured for 48 hrs by MTT assay; type: functional, cell-based; details: Bel-7402, 48 h
[3] = test system: HL-60; test: Cytotoxicity against human HL-60 cells assessed as reduction in cell viability by MTT assay; type: functional, cell-based
[4] = test system: A549; test: Cytotoxicity against human A549 cells assessed as reduction in cell viability measured for 48 hrs by MTT assay; type: functional, cell-based; details: A549, 48 h
[5] = test system: MOLT-4; test: Cytotoxicity against human MOLT-4 cells assessed as reduction in cell viability by MTT assay; type: functional, cell-based
[6] = test system: U-937; test: Cytotoxicity against human U-937 cells assessed as reduction in cell growth incubated for 48 hrs by CCK-8 assay; type: functional, cell-based; details: U-937, 48 h
[7] = test system: A549; test: Cytotoxicity against human A549 cells assessed as inhibition of cell growth; type: functional, cell-based
[8] = test system: P388; test: Cytotoxicity against mouse P388 cells assessed as inhibition of cell growth; type: functional, cell-based
[9] = test system: SK-MEL-28; test: Cytotoxicity against human SK-MEL-28 cells assessed as inhibition of cell growth; type: functional, cell-based
[10] = test system: HT-29; test: Cytotoxicity against human HT-29 cells assessed as inhibition of cell growth; type: functional, cell-based
[11] = test system: P388; test: Cytotoxicity against mouse P388 cells assessed as reduction in cell viability; type: functional; details: read-out: ED50 (the source's name)
[12] = test system: NCI-H460; test: Cytotoxicity against human NCI-H460 cells assessed as reduction in cell growth incubated for 48 hrs by SRB assay; type: functional, cell-based; details: NCI-H460, 48 h
[13] = test system: MCF7; test: Cytotoxicity against human MCF7 cells assessed as reduction in cell growth incubated for 48 hrs by SRB assay; type: functional, cell-based; details: MCF7, 48 h
[14] = test system: SF-268; test: Cytotoxicity against human SF-268 cells assessed as reduction in cell growth incubated for 48 hrs by SRB assay; type: functional, cell-based; details: SF-268, 48 h
[15] = test system: HepG2; test: Cytotoxicity against human HepG2 cells assessed as reduction in cell growth incubated for 48 hrs by SRB assay; type: functional, cell-based; details: HepG2, 48 h
[16] = test system: MDA-MB-231; test: Antiproliferative activity against human MDA-MB-231 cells assessed as reduction in cell viability incubated for 72 hrs by SRB assay; type: functional, cell-based; details: MDA-MB-231, 72 h
[17] = test system: HT-29; test: Antiproliferative activity against human HT-29 cells assessed as reduction in cell viability incubated for 72 hrs by SRB assay; type: functional, cell-based; details: HT-29, 72 h
[18] = test system: A549; test: Antiproliferative activity against human A549 cells assessed as reduction in cell viability incubated for 72 hrs by SRB assay; type: functional, cell-based; details: A549, 72 h

`CS[C@@]1(C(C)C)C(=O)N2C(=CC3(C45c6ccccc6N[C@H]4N4C(=O)[C@H](CO)N(C)C(=O)[C@@]4(O)[C@H]5O)c4ccccc4N[C@H]23)C(=O)N1C` (stereo partly drawn) was tested. Which EC50 [1] did it give?
Its EC50 is 14.8 µg/mL (≈ 22.4 µM).

With `COc1ccc2c3c(n(CC=C(C)C)c2c1)[C@H](C=C(C)C)N1C(=O)[C@@H]2CCCN2C(=O)[C@]1(O)C3=O` as the molecule, how does the IC50 [2] read?
Its IC50 is 25.6 µM.

What about the IC50 [3] of the same molecule?
The IC50 was 1.9 µM.

And the IC50 [4]?
The IC50 was 16.9 µM.

What about the IC50 [5] of the same molecule?
The IC50 was 25.7 µM.

With `COc1ccc2c3c([nH]c2c1)[C@H](C=C(C)C)N1C(=O)[C@@H]2CCCN2C(=O)[C@@]1(O)[C@H]3O` as the molecule, how does the IC50 [6] read?
The IC50 was 92.4 µM.

`COc1cc2c(cc1O)CCN[C@@]21CS[C@@H]2c3c(OC(C)=O)c(C)c4c(c3[C@H](COC1=O)N1[C@@H]2[C@@H]2N[C@@H](Cc3cc(C)c(OC)c(O)c32)[C@@H]1O)OCO4` was tested. Which IC50 [7] did it give?
The IC50 was 0.2 ng/mL (≈ 0.000267 µM).

And the IC50 [8]?
Its IC50 is 200 nM.

What about the IC50 [9] of the same molecule?
The IC50 was 5 ng/mL (≈ 0.00669 µM).

And the IC50 [10]?
Its IC50 is 0.5 ng/mL (≈ 0.000669 µM).

With `CC(C)[C@]12SSS[C@]3(C(=O)N1C)[C@@H](O)C1(C45c6ccccc6N[C@H]4N4C(=O)[C@@]6(CO)SSS[C@]4(C(=O)N6C)[C@H]5O)c4ccccc4N[C@@H]1N3C2=O` (stereo partly drawn) as the molecule, how does the EC50 [1] read?
Its EC50 is 0.0043 µg/mL (≈ 0.00534 µM).

For `CO[C@@]12C(=O)N(C)[C@@H](CO)C(=O)N1[C@@H]1Nc3ccccc3C1(C13c4ccccc4N[C@@H]1N1C(=O)[C@@]4(C(C)C)SSSS[C@]1(C(=O)N4C)[C@H]3O)[C@@H]2O` (stereo partly drawn), which EC50 [1] is on record?
The EC50 was 1.05 µg/mL (≈ 1.36 µM).

Which EC50 [11] does the source give for `CC(C)[C@]12SS[C@]3(C(=O)N1C)[C@@H](O)C1(C45c6ccccc6N[C@H]4N4C(=O)[C@@]6(CO)SSSS[C@]4(C(=O)N6C)[C@H]5O)c4ccccc4N[C@@H]1N3C2=O` (stereo partly drawn) here?
Its EC50 is 0.00185 µg/mL (≈ 0.0023 µM).

Which IC50 [12] does the source give for `CS[C@]1(CO)C(=O)N2[C@H]3C(=CC=C[C@@H]3OC(C)=O)C[C@@]2(SC)C(=O)N1C` here?
Its IC50 is 3400 nM.

What about the IC50 [13] of the same molecule?
The IC50 was 3100 nM.

What about the IC50 [14] of the same molecule?
Its IC50 is 34 µM.

And the IC50 [15]?
The IC50 was 7 µM.

`CN1C[C@@H](c2c[nH]c3cc(Br)ccc23)N(C)C[C@@H]1c1c[nH]c2cc(Br)ccc12` was tested. Which IC50 [16] did it give?
The IC50 was 28 µM.

And the IC50 [17]?
Its IC50 is 19.3 µM.

What about the IC50 [18] of the same molecule?
Its IC50 is 20.3 µM.

How did the EC50 [1] turn out when `CS[C@]1(C(C)C)C(=O)N2C(=CC3(C45c6ccccc6N[C@H]4N4C(=O)[C@H](CO)N(C)C(=O)[C@@]4(O)[C@H]5O)c4ccccc4N[C@H]23)C(=O)N1C` (stereo partly drawn) was run?
The EC50 was 15.2 µg/mL (≈ 23 µM).

How did the EC50 [11] turn out when `CC(C)[C@]12SSSS[C@]3(C(=O)N1C)[C@@H](O)C1(c4c[nH]c5ccccc45)c4ccccc4N[C@@H]1N3C2=O` (stereo partly drawn) was run?
The EC50 was 0.056 µg/mL (≈ 0.101 µM).

Which results are given for `COc1ccc2c(c1)N(/C=C/C(C)(C)OO)C(=O)[C@]21[C@H](C=C(C)C)N2C(=O)[C@@H]3CCCN3C(=O)[C@]2(O)[C@H]1O`?
IC50 [2]: 98.4 µM; IC50 [3]: 2.3 µM; IC50 [4]: 3.1 µM; IC50 [5]: 3.1 µM

How did the EC50 [1] turn out when `CC(C)[C@]12SSS[C@]3(C(=O)N1C)[C@@H](O)C1(C45c6ccccc6N[C@H]4N4C(=O)[C@@]6(C(C)C)SS[C@]4(C(=O)N6C)[C@H]5O)c4ccccc4N[C@@H]1N3C2=O` (stereo partly drawn) was run?
The EC50 was 0.0022 µg/mL (≈ 0.0028 µM).

With `CC(C)[C@]12SSS[C@]3(C(=O)N1C)[C@@H](O)C1(C45c6ccccc6N[C@H]4N4C(=O)[C@@]6(CO)SSSS[C@]4(C(=O)N6C)[C@H]5O)c4ccccc4N[C@@H]1N3C2=O` (stereo partly drawn) as the molecule, how does the EC50 [1] read?
The EC50 was 0.0046 µg/mL (≈ 0.0055 µM).

How did the IC50 [2] turn out when `COc1ccc2c(c1)N(CC=C(C)C)C(=O)[C@]21[C@H](C=C(C)C)N2C(=O)[C@@H]3CCCN3C(=O)[C@]2(O)[C@H]1O` was run?
Its IC50 is 68.8 µM.

What about the IC50 [3] of the same molecule?
Its IC50 is 43.5 µM.

And the IC50 [4]?
Its IC50 is 35.9 µM.

And the IC50 [5]?
Its IC50 is 25.7 µM.

Which EC50 [1] does the source give for `CO[C@@]12C(=O)N(C)[C@@H](C(C)C)C(=O)N1[C@@H]1Nc3ccccc3C1(C13c4ccccc4N[C@@H]1N1C(=O)[C@@]4(C(C)C)SSS[C@]1(C(=O)N4C)[C@@H]3O)[C@H]2O` (stereo partly drawn) here?
The EC50 was 0.19 µg/mL (≈ 0.252 µM).

Which EC50 [1] does the source give for `CSS[C@]1(C(C)C)C(=O)N2C(=CC3(C45c6ccccc6N[C@H]4N4C(=O)[C@H](CO)N(C)C(=O)[C@@]4(O)[C@H]5O)c4ccccc4N[C@H]23)C(=O)N1C` (stereo partly drawn) here?
Its EC50 is 0.1 µg/mL (≈ 0.144 µM).

With `C=C(C)[C@H](O)Cn1c2c(c3ccc(OC)cc31)[C@H](O)[C@@]1(O)C(=O)N3CCC[C@H]3C(=O)N1[C@H]2C=C(C)C` as the molecule, how does the IC50 [2] read?
The IC50 was 10.8 µM.

What about the IC50 [3] of the same molecule?
Its IC50 is 5.4 µM.

And the IC50 [4]?
Its IC50 is 11.6 µM.

And the IC50 [5]?
Its IC50 is 11 µM.

`CO[C@@]12C(=O)N(C)[C@@H](CO)C(=O)N1[C@@H]1Nc3ccccc3C1(C13c4ccccc4N[C@@H]1N1C(=O)[C@@]4(C(C)C)SS[C@]1(C(=O)N4C)[C@@H]3O)[C@H]2O` (stereo partly drawn) was tested. Which EC50 [1] did it give?
The EC50 was 0.18 µg/mL (≈ 0.254 µM).

For `CN1C(=O)[C@]23Cc4ccccc4N2C(=O)[C@@]1(CO)SS3`, which IC50 [12] is on record?
The IC50 was 1270 nM.

What about the IC50 [13] of the same molecule?
The IC50 was 680 nM.

And the IC50 [14]?
The IC50 was 1.35 µM.

What about the IC50 [15] of the same molecule?
Its IC50 is 1.52 µM.
